Values of other authors as cited in US20080293709A1, “Novel 2-Amino-Heterocycles Useful in the Treatment of Abeta-Related Pathologies” (AstraZeneca AB, priority 2005, published 2008).
Non-standard residues stand in square brackets, D forms with d. Residues, ends and D or L forms follow the SMILES beside them. *: point of attachment. Sta = CC(C)C[C@H](N)[C@@H](O)CC(=O)O; Isovaleryl = CC(C)CC(=O)*

Molecular target: BACE (Homo sapiens, UniProt P56817)
Sequence (P56817 46-501): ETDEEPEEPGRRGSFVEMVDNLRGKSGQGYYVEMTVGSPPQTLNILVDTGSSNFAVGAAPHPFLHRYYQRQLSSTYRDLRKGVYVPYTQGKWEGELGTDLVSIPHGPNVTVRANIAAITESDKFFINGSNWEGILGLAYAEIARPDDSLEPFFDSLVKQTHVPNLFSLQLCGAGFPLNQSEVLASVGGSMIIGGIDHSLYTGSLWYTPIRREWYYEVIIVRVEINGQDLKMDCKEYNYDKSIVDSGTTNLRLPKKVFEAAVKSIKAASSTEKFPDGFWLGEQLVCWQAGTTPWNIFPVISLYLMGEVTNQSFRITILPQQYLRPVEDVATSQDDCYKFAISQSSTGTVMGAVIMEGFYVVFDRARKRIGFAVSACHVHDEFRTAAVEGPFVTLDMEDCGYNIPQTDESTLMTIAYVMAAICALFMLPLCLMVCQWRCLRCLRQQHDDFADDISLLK

## CC(C)CC(=O)N[C@H](C(=O)N[C@H](C(=O)N[C@@H](CC(C)C)[C@@H](O)CC(=O)N[C@@H](C)C(=O)N[C@@H](CC(C)C)[C@@H](O)CC(=O)O)C(C)C)C(C)C [pepstatin] (Isovaleryl-VV[Sta]A[Sta]-OH)
  inhibition of BACE: inhibited weakly
